Assay results published in PubChem BioAssay AID179 (DTP/NCI, 2004).
Calls of active or inactive are those of the source.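 How the source made its calls: active means compounds giving half or more protection of infected cells from virus-caused growth loss, again on retest; inactive means the rest.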

System: CEM cells HIV-1 protection, formazan growth assay
Test: NCI AIDS Antiviral Assay
Details: for IC50: measured here: growth of uninfected CEM cells
Outline: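 Protection of CEM cells against HIV-1 measured as cell growth via soluble formazan read-out, with five concentrations tested on both infected and uninfected cells; failure to protect may reflect toxicity.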

Compound | EC50 [µM] | IC50 [µM] | outcome
O=C(Nc1cccc([N+](=O)[O-])c1)c1n[nH]n(-c2cccc([N+](=O)[O-])c2)c1=O | > 200 | > 200 | –
C#CC(C)(C)Oc1ccc2c(=O)c(-c3ccc(OC)c(OC)c3)coc2c1 | > 200 | 22.4 | –
O=c1oc2c3ccccc3c3ccccc3c2c2oc3c4ccccc4c4ccccc4c3c12 | 0.0209 | 0.955 | –
C[C@@H]([C@H]1[C@H](O)C[C@@]2(C)[C@@H]3C=C[C@H]4C(C)(C)[C@@H](N(C)C)CC[C@@]45C[C@@]35CC[C@]12C)N(C)C | > 100 | > 100 | –
Cc1ncc(CC#N)c2c1OC(C)(C)OC2 | > 1150 | > 1150 | –
Cn1c(=O)c2[nH]c(N=Nc3c(N)n[nH]c3N)nc2n(C)c1=O | > 200 | > 200 | –
COC(=O)CC(NC(=O)OCc1ccccc1)C(C(=O)OCc1ccccc1)C(C)(OC)OC (stereo unspecified) | > 50.1 | 20.4 | –
CC1(C)OC2C(O1)[C@H]1OC(C(Cl)(Cl)Cl)=N[C@H]1C(I)[C@H]2N1C(=O)c2ccccc2C1=O (stereo partly specified) | > 200 | 110 | –
CN(C)C=Nc1ccn(CCO)c(=O)n1 | > 1200 | > 1200 | –
O=C(O)CP(=S)(S)c1ccccc1 (stereo unspecified) | > 5620 | > 5620 | –
C=C[C@]1(C)CC(=O)C(C(C)C=O)[C@]12C(=O)Oc1cccc(C)c1C2=O (stereo partly specified) | > 200 | 13.5 | –
CC(CO)CCNc1ncnc2c1ncn2CCC#N (stereo unspecified) | > 200 | > 200 | –
C=C(C)[C@@H]1CC[C@@H](C)[C@](O)([C@@H]2C[C@@H]([C@H](COC(=O)c3ccccc3)OC(=O)c3ccccc3)OC2=O)C1 | > 100 | > 100 | –
Cc1nc2ccc(N)cc2[nH]c1=O | > 741 | > 741 | –
COC(=O)NC(S(=O)(=O)O)S(=O)(=O)O | – | – | inactive
CC(SCCCCCCCCCCSC(C)C(=O)O)C(=O)O (stereo unspecified) | > 141 | > 141 | –
CCOC(=O)c1nc2ccccc2nc1Nc1cc(OC)c(OC)c(OC)c1 | > 200 | > 200 | –
CCC12CCC3CCCCC3(OO1)[C@@H](OC)O2 (stereo partly specified) | > 51.3 | > 51.3 | –
Nc1nn2cc3c(nc2c1N=Nc1ccccc1)CCC3 | > 200 | > 200 | –
Cc1nc(C)c2c(n1)Oc1ccc3ccccc3c1C2 | > 49 | > 49 | –
CCCC(CC)c1cc(O)c(O)cc1C(CC)CCC (stereo unspecified) | > 200 | 105 | –
C=C1CN(S(=O)(=O)c2ccc(C)cc2)CCCCN(Cc2ccccc2)CCCN(S(=O)(=O)c2ccc(C)cc2)C1 | > 200 | 6.92 | –
C=CCC1[C@@H](C(C)(C)C(C(C)=O)C(=O)C(=O)OC)OC(C(C)(C)C)N1C(=O)OC (stereo partly specified) | > 63.1 | > 63.1 | –

Compound | EC50 [µM] | IC50 [µM] | outcome
O=C(O)CCNS(=O)(=O)c1ccc([N+](=O)[O-])cc1 | – | – | inactive
CC1(C)CNC[C@@](C)(O)C(=O)[N-]C(C)(C)CNC[C@](C)(O)C(=O)[N-]1.[Ni+2] | > 200 | 120 | –
O=c1[nH]c2cc(Cl)ccc2c(O)c1Cc1c(O)c2ccc(Cl)cc2[nH]c1=O | > 100 | 5.37 | –
O=C(O)C(CSSCC(NC(=O)C(F)(F)F)C(=O)O)NC(=O)C(F)(F)F (stereo unspecified) | > 200 | > 200 | –
OC(CC(O)(C(F)(F)Cl)C(F)(F)Cl)c1ccccc1 (stereo unspecified) | > 200 | 44.7 | –
O=C(/C=C/c1ccccc1)Oc1ccc(C(=O)/C=C/c2ccccc2)cc1 | > 151 | 6.76 | –
O=c1ccn(COC(COCc2ccccc2)COCc2ccccc2)c(=O)[nH]1 | – | – | inactive
COc1ccccc1CNCCCCCNCCCCCCCCCCNCCCCCNCc1ccccc1OC | > 200 | 28.8 | –
CCC1=C(CC2NCCc3ccccc32)CC2c3cc(OC)c(OC)cc3CCN2C1 (stereo unspecified) | – | – | inactive
CCOC(=O)NC(Nc1ccc(C)cc1)(C(F)(F)F)C(F)(F)F | > 200 | > 200 | –
COC(=O)c1ccc(C(=O)OC)c2nc3cc(C)ccc3nc12 | > 219 | > 219 | –
C/C=C\C(O)C#Cc1cnc(OC)nc1OC (stereo unspecified) | > 200 | 42.7 | –
CCOC(=O)CSc1nc(-c2ccc(Cl)cc2)c(C#N)c(=O)[nH]1 | > 200 | 93.3 | –
C=CC(CCC(C)OC(CCC)OCC)[Si](C)(C)C (stereo unspecified) | > 91.2 | > 91.2 | –
COc1ccc(C2OC(c3ccncc3)=NN2C)cc1F (stereo unspecified) | > 200 | > 100 | –
C1C[S+]2CC[S+]1CC2 | > 200 | > 200 | –
O=C1N/C(=N\N=C\c2ccccc2)C2(CCCCC2)O1 | > 200 | 97.7 | –
CC(C)=CCC/C(C)=C/CCC(C)/C=C/C(=O)NC[C@@H]1CC[N@+]2(C)CCCC[C@H]12 (stereo partly specified) | > 501 | 23.4 | –
O=C(CN1CCC(O)(c2ccc(F)cc2)CC1)N1CCN(C/C=C/c2ccccc2)CC1 | > 200 | 28.8 | –
Cc1cc(Cl)ccc1NC(=O)C(=O)Cc1occc(=O)c1O | > 295 | > 295 | –
COc1ccc(-c2c3c(nc4nc(SC)nc(SC)c24)CCCC3)cc1OC | > 100 | 81.3 | –
S=c1sc(-c2ccc(Cl)cc2)nn1CSc1nc2ccccc2o1 | > 200 | > 200 | –
O=[N+]([O-])O.[Tb] | – | – | inactive

Compound | EC50 [µM] | IC50 [µM] | outcome
O=C(O)c1ccc(O)c(N=Nc2cc(S(=O)(=O)O)c3cccnc3c2O)c1 | 81.3 | 224 | –
CC1=Nc2ccccc2/C1=C\c1c(C)[nH]c2ccccc12 | 0.0631 | 11.5 | –
O=C(c1ccccc1)N1OCCCc2ccccc21 | > 200 | 195 | –
COc1ccc(NC(=O)C(=O)C(CC2C(=O)NC(=S)NC2=O)C(=O)c2ccc3ccccc3c2)c([N+](=O)[O-])c1 (stereo unspecified) | > 123 | > 123 | –
CC1C(Cl)(Cl)C1(C)/C=C/C1C(C)(C)C1(Cl)Cl (stereo unspecified) | > 200 | 91.2 | –
N#C/C(=C\c1ccccc1F)C(=O)O | > 676 | 302 | –
CCC1C(C#N)=C(O)NC(O)=C1C#N | > 1290 | 813 | –
COc1cc(OC)c2c(c1)OC1OC(=O)CC21 (stereo unspecified) | > 209 | > 209 | –
O=C1CCCC(C(Sc2ccccc2)(Sc2ccccc2)Sc2ccccc2)C1 (stereo unspecified) | > 200 | 12 | –
CN(C)c1ccc(Cc2cc3c(O)ccc(O)c3cc(Cc3ccc(N(C)C)cc3)c2=O)cc1 | > 200 | 3.16 | –
CS(=O)(=O)SCc1ccc([N+](=O)[O-])cc1 | > 145 | 20.4 | –
Cn1c(=O)c2nc(-c3ccccc3)oc2n(C)c1=O | – | – | inactive
Nc1nc2c(c(=O)[nH]1)N1CN(c3ccc(C(=O)NC(CCC(=O)O)C(=O)O)cc3)CCC1CN2 (stereo unspecified) | > 347 | 60.3 | –
CN(C)c1ccc(C(=CC=C2C(=O)c3ccccc3C2=O)c2ccc(N(C)C)cc2)cc1 | > 11.2 | > 11.2 | –
CC1(C)CCC(C)(C)c2cc(C(=O)Nc3ccc(C(=O)O)cc3)ccc21 | – | 115 | inactive
C=CC1(c2ccccc2Cl)N/C(=C/OCC)CO1 (stereo unspecified) | > 26.9 | > 26.9 | –
CCOC(=O)C=C1CCC2(CC1)OCCO2 | > 251 | > 251 | –
Brc1ccccc1CCc1ncc[nH]1 | > 575 | 234 | –
Cc1cc(N(CCC#N)CCC#N)ccc1/C=C(\NC(=O)/C=C/c1ccccc1)C(=O)Nc1ccccc1Cl | – | – | inactive
O=c1c(-c2ccc(Cl)cc2)nnc2n(Cc3ccccc3)c3ccccc3n12 | > 200 | > 200 | –
O=C1CCC2c3[nH]c4ccccc4c3CCN12 (stereo unspecified) | > 200 | 186 | –
N#CC(=N)c1ncn(CCO)c1NC(=O)C(F)(F)F | > 200 | > 200 | –
C=CCn1c(=O)c(C(=O)NC(=O)OCC)cn(C2CCCCC2)c1=O | > 145 | > 145 | –

Compound | EC50 [µM] | IC50 [µM] | outcome
COc1ccc(NC(=O)CC(=O)N2N=C(N(CCC#N)c3ccccc3Cl)CC2c2ccccc2)cc1 (stereo unspecified) | > 50.1 | > 50.1 | –
CN1C(=O)N(C)C(O)C(Cl)(Cl)C1=O (stereo unspecified) | > 200 | > 200 | –
O=C(O)c1c2c(cc3c(=O)cc(-c4ccccc4)oc13)CCCC2 | – | – | inactive
O=C(NCCCN1CCN(CCCNC(=O)c2cnc3ccccc3n2)CC1)c1cnc2ccccc2n1 | > 10 | > 10 | –
CC1(O)N2CCCC1(c1ccccc1)CC2 (stereo unspecified) | > 1150 | 178 | –
CSc1ncccc1C(=O)[O][Sn]([c]1ccccc1)([c]1ccccc1)[c]1ccccc1 | > 2 | 0.316 | –
Cc1nc2c(ccc3ncccc32)[nH]1 | – | – | inactive
CN(C)c1ccc(N=Nc2ccc3c(c2)C(=O)c2ccccc2C3=O)cc1 | > 200 | > 200 | –
Cc1ccc([N+](=O)[O-])c2c(NCCCN(C)C)c3ccccc3nc12 | > 0.2 | 0.0513 | –
COc1cccc2c1OC1c3ccccc3OCC1C2 (stereo unspecified) | > 200 | 97.7 | –
CCCCCCCCC(C)CCCCCCCCC(=O)O (stereo unspecified) | – | – | inactive
COc1cc(C(=O)C(CO)Oc2ccccc2OC)ccc1O (stereo unspecified) | > 794 | 123 | –
COc1ccc(-c2c(O)c3cccc(-c4ccccc4)c3oc2=O)cc1 | > 200 | 93.3 | –
COC(=O)C(Cc1nc2ccccc2[nH]c1=O)C(=O)C(=O)Nc1ccc(OC)cc1[N+](=O)[O-] (stereo unspecified) | > 398 | > 398 | –
c1ccc2c(c1)CCN(NCCN1CCCC1)C2 | – | – | inactive
Cn1c(-c2cccs2)cc(-c2ccsc2)c1-c1ccsc1 | > 200 | > 200 | –
COc1ccc(C(C)NNC(=O)c2ccncc2)cc1OC (stereo unspecified) | > 200 | 30.2 | –
COc1cc2c(cc1OC)C(=O)/C(=C/c1ccc(Cl)cc1)CC2 | > 200 | > 200 | –
N#CC1CCCC2SC(F)(F)C(F)(F)C12 (stereo unspecified) | > 200 | 33.1 | –
CCCCCCCCCCCCCCCC1=NCCN1C | > 45.7 | 35.5 | –
O=C(Nc1cccc([N+](=O)[O-])c1)C(=O)C(C(=O)c1ccccc1-c1ccccc1)C1OC(=O)c2ccccc21 (stereo unspecified) | > 69.2 | 33.1 | –
Oc1ccccc1CNCc1nc2ccccc2[nH]1 | > 200 | 74.1 | –
